From paper PMC5802278, “Molecular and cellular mechanisms of HIF prolyl hydroxylase inhibitors in clinical trials” (Chemical Science, 2017)
Where two headings read alike, the source gives them in different places.

Legend:
[1] = system: patients with haemodialysis CKD, Hb 9.5-12.0 g/dL; parameters: method as in ref 42 (a number printed in a supplementary file, which may have a reference list of its own: not looked up in the article's list); details: 5 mg daily, 4 weeks; cited from earlier work
[2] = molecular target: T1, PHD2 catalytic domain (residues 181-426) (Homo sapiens, UniProt Q9GZT9); assay: 1H CPMG NMR screening of equimolar enzyme-inhibitor mixture; format: binding; parameters: The catalytic domain of human PHD2 (residues 181-426) was used in all; made in house; details: equimolar enzyme-inhibitor mixture (50 µM)
PHD2 = PHD2 (Homo sapiens, UniProt Q9GZT9); assay: LC-MS based RapidFire PHD2 hydroxylation assay; format: biochemical; details: 150 nM isolated recombinant human PHD2, LC-MS based RapidFire assay
Protocol: LC-MS PHD2 hydroxylation assays
The PHD2 RF-MS RapidFire liquid chromatography mass spectrometry (RF-MS) assay monitors turnover of a C-terminal oxygenase dependent domain (CODD) peptide substrate
(Pro564) in an endpoint type assay format (typical enzyme incubation time of 15 minutes).
Tris(hydroxymethyl)aminomethane was from Fisher. Ferrous ammonium sulfate (FAS), 2-oxoglutarate (2OG) and L-ascorbic acid were from Sigma Aldrich; solutions of these were prepared freshly each day. All inhibition assays were carried out in 384-well polypropylene plates (Greiner Bio-One). PHD2 assays were performed in assay buffer (50 mM Tris.Cl pH
well polypropylene assay plates. The final assay concentration of DMSO was kept constant at 0.5%. PHD2 protein was prepared at a concentration of 300 nM in assay buffer and 25 μl dispensed across each 384-well assay plate. […]
water containing 0.1% formic acid onto the mass spectrometer. Peptide charge states were monitored in positive mode. Ion chromatogram data were extracted for the +2 charge state and peak area data integrated using RapidFire Integrator software (Agilent). % conversion of the CODD peptide substrate to the +16 hydroxylated peptide was calculated using the equation: % conversion = 100 x hydroxylated / (hydroxylated + non-hydroxylated peptide). IC50 values were determined from non-linear regression plots using GraphPad prism.

[3] = molecular target: T1, PHD2 catalytic domain (residues 181-426); assay: AlphaScreen antibody based PHD2 assay (HIF-1α CODD peptide hydroxylation); format: biochemical; parameters: 10 nM PHD2 (catalytic domain, residues 181–426); made in house; details: AlphaScreen; 5 nM PHD2, 2 μM 2OG, 60 nM biotinylated CODD peptide; read-out: IC50 PHD2
Protocol: AlphaScreen antibody based PHD assays were as reported[39] using 384-well white ProxiPlates™ (PerkinElmer). Reactions were performed in 50 mM HEPES buffer pH 7.5, 0.01% Tween-20 and 0.1% BSA in a final volume of 10 μL at room temperature. […] The luminescence signal was measured using an Envision (Perkin Elmer) plate reader. Data were analyzed utilizing GraphPad prism.

FIH = FIH (Homo sapiens, UniProt Q9NWT6); assay: LC-MS (RapidFire) FIH hydroxylation assay; format: biochemical
[4] = molecular target: T1, PHD2 catalytic domain (residues 181-426); assay: NMR KD measurement (2OG displacement or water relaxation); format: binding; parameters: The catalytic domain of human PHD2 (residues 181-426) was used in all; made in house; details: water relaxation or 2OG displacement
Protocol: Water-Ligand Observed Gradient SpectroscopY (wLOGSY) experiments were conducted […]
Solvent excitation was achieved using a 16 ms 180 degree selective rectangular shape pulse with 100% truncation level and 1000 points (Squa100.1000) set at the H2O frequency. Water suppression was achieved by a 2 ms Sinc (Sinc1.1000) pulse at the H2O frequency.
2OG displacement experiments were monitored by CPMG-edited 1H NMR using a Bruker […]
supplemented with 60 µM Zn(II) and increasing concentrations of the inhibitors from a […]
(90°x−[τ−180°y−τ−90°y−τ−180°y−τ]n−acq), was applied. Typical experimental parameters were […]
suppression was achieved by presaturation.
For 13C-CODD and […] displacement experiments, 1D Clean In-Phase (CLIP) HSQC with selective 13C-inversion displacement experiments were conducted using a Bruker AV700 instrument. 3 mm MATCH NMR tubes were used (Cortecnet). All experiments were […]
prolyl-ring. 7 The CLIP-HSQC sequence was used for 1D HSQC experiments (without 13C decoupling).8 Relaxation delay was 2s. The 1JCH was set to 160 Hz. A 6.8 ms Q3.1000 180 degree pulse was used and selective irradiation was applied at the selected chemical shift. […]
Samples were prepared by mixing reaction mixture (1 μL) with α-cyano-4-hydrocinnamic acid (CHCA) solution (water:acetonitrile 1:1) (1 μL). Dose-response was assessed in 8-point […]

Hep3b cells = assay: Hep3b cell viability / cell density after prolonged treatment; format: cell-based, human
Protocol: Cell seeding and inhibitor treatments were performed in parallel in the same manner as used for the HRE reporter assay (see above). Resazurin (Sigma, R7017) was used for detection of cell viability at a final concentration of 10μg/ml. Cells were incubated with Resazurin at 37°C
and emission wavelength of 590 nm using a FLUOstar Omega Microplate Reader (BMG
Hep3b cell viability after prolonged treatment of PHD inhibitors. Cell viability

[5] = system: patients with anaemia secondary to CKD stage 3 or 4; parameters: method as in ref 32 (a number printed in a supplementary file, which may have a reference list of its own: not looked up in the article's list); details: 6 weeks, cited from earlier work
[6] = system: NDD-CKD subjects with Hb ≤ 11.0 g/dL; parameters: method as in ref 34 (a number printed in a supplementary file, which may have a reference list of its own: not looked up in the article's list); details: 4 weeks, cited from earlier work
[7] = system: patients with NDD CKD (stage 3 or 4) and Hb ≤ 10.5 g/dL; parameters: method as in ref 36 (a number printed in a supplementary file, which may have a reference list of its own: not looked up in the article's list); details: after 16 weeks of treatment, 143 subjects evaluable for efficacy; cited from earlier work
[8] = system: patients with ESRD on haemodialysis and previously with Epoetin Alfa; parameters: method as in ref 38 (a number printed in a supplementary file, which may have a reference list of its own: not looked up in the article's list); details: TIW, 7 weeks, cited from earlier work

T1 sequence (Q9GZT9 181-426): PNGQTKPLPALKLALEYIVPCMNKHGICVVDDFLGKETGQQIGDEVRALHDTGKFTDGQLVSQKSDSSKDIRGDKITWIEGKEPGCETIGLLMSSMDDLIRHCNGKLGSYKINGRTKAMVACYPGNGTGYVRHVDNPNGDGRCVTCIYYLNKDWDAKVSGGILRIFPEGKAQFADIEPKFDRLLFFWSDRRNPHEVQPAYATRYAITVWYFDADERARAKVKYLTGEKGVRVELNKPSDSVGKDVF
FIH, sequence (Q9NWT6 whole entry, the tested form may be a part): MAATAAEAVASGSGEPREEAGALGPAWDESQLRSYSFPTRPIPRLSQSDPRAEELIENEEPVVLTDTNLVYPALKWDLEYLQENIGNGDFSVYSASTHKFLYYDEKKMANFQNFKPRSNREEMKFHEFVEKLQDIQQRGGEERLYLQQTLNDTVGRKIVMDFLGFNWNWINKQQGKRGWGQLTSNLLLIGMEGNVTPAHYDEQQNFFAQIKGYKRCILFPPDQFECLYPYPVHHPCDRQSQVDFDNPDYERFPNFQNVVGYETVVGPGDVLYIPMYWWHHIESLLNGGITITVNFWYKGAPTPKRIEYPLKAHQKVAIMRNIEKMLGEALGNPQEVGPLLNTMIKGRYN
PHD2, sequence (Q9GZT9 whole entry, the tested form may be a part): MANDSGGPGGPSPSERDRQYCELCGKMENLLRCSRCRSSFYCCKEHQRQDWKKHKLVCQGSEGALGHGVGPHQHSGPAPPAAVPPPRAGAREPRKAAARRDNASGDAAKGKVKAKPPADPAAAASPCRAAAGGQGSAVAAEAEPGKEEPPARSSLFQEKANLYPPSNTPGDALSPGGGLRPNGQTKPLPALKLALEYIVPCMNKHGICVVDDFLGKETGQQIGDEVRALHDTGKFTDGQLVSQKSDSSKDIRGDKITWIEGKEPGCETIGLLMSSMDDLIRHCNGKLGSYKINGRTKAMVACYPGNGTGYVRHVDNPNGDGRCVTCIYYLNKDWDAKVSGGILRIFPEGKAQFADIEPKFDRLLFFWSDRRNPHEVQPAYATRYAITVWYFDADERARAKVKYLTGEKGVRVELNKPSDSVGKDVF

O=C(O)CNC(=O)C1C(=O)N(C2CCCCC2)C(=O)N(C2CCCCC2)C1=O [GSK1278863]
Hb level maintenance after switch from rhEPO [1]: maintained

O=c1c(-n2ccnn2)c[nH]n1-c1cc(N2CCOCC2)ncn1 [Molidustat]
binding by 1H CPMG NMR [2]: strong binding
IC50 (PHD2): 1320 nM
IC50 [3]: 7 nM
IC50 for FIH relative to PHD2 (FIH; isolated protein assays, Table 1): > 100 fold
IC50 (FIH; isolated recombinant enzyme, read-out: IC50 FIH): 66000 nM
KD [4]: sub-μM range

CC(C)(C)OC(=O)c1ccc(-n2[nH]cc(-n3ccnn3)c2=O)nc1 [IOX4]
cell viability after prolonged treatment (Hep3b cells; 10 μM, 24, 48, 72 hours): significant reduction in cell viability
reduction in cell density versus the other 3 inhibitors (judged visually) (Hep3b cells; 10 μM, 72nd hour): 40–50%
binding by 1H CPMG NMR [2]: strong binding
IC50 (PHD2): 540 nM
IC50 [3]: 3 nM
KD [4]: sub-μM range

O=C(O)CNC(=O)c1ncc(-c2cccc(Cl)c2)cc1O [Vadadustat]
subjects with Hb increase ≥ 1 g/dL from baseline ([5]; 240 mg daily): 31%
subjects with Hb increase ≥ 1 g/dL from baseline ([5]; 370 mg daily): 40%
subjects with Hb increase ≥ 1 g/dL from baseline ([5]; 500 mg daily): 65%
subjects with Hb increase ≥ 1 g/dL from baseline ([5]; 630 mg daily): 78%

Cc1nc(C(=O)NCC(=O)O)c(O)c2ccc(Oc3ccccc3)cc12 [FG-4592]
subjects with Hb increase ≥ 1 g/dL from baseline ([6]; 0.7 mg/kg BIW): 30%
subjects with Hb increase ≥ 1 g/dL from baseline ([6]; 0.7 mg/kg TIW): 58%
subjects with Hb increase ≥ 1 g/dL from baseline ([6]; 1.0 mg/kg BIW): 60%
subjects with Hb increase ≥ 1 g/dL from baseline ([6]; 1.0 mg/kg TIW): 40%
subjects with Hb increase ≥ 1 g/dL from baseline ([6]; 1.5 mg/kg BIW): 80%
subjects with Hb increase ≥ 1 g/dL from baseline ([6]; 1.5 mg/kg TIW): 91%
subjects with Hb increase ≥ 1 g/dL from baseline ([6]; 2.0 mg/kg BIW): 100%
subjects with Hb increase ≥ 1 g/dL from baseline ([6]; 2.0 mg/kg TIW): 100%
IC50 (FIH): > 100000 nM
subjects with Hb increase ≥ 1 g/dL from baseline and Hb of ≥ 11.0 g/dL (Hb response) by week 17 [7]: 91.6%
Hb levels maintained ([8]; high-dose cohort): 100%
Hb levels maintained ([8]; low-dose cohort): 59.1%
Hb levels maintained ([8]; medium-dose cohort): 88.9%
